Results reported in US8329645B2, “Polymyxin derivatives and uses thereof” (priority 2008, dated 2012).

Key:
E. coli IH3080 [1] = experiment: Growth inhibition around wells on LB agar plates; type: cell-based, Escherichia coli
Procedure: Peptides synthesized in Example 1, all carrying at least two (2) but not more than three (3) positive charges, were studied for their ability to inhibit the growth of E. coli. This was tested employing LB agar (LB Agar Lennox, Difco, BD, Sparks, Md., U.S.A) plates. The indicator organism E. coli IH3080 (K1:O018) was an encapsulated strain originally isolated from a neonate suffering from meningitis (Vaara et al. 1984) and obtained from National Public Health Institute, Helsinki, Finland.
(§1) From an overnight-grown culture of IH3080 on LB agar, a suspension of approx. 10^8 cells/ml was prepared in 0.9% NaCl. Aliquots of this suspension were then pipetted on the agar plates and the plates were gently shaken to spread the suspension evenly on the entire surface of the plate. Thereafter, the unabsorbed part of the suspension was removed by using a Pasteur pipette. After the surface had dried, small wells (diameter, 2 mm) were drilled on the plates (five wells per plate) by using a sterile sharp-edged narrow metal tube, single-use pipette tip, and vacuum suction. An alternative method used a swab to spread the inoculum. […] Controls included 0.9% NaCl solution without the compound to be tested. The plates were then incubated for 18 h at 37° C. whereafter the diameters of growth inhibition zones around each well were measured; the diameter of the well itself was not reduced. Finally, the diameters were converted to surface areas of growth inhibition (in square mm).

[2] = tested on: Acinetobacter baumannii ATCC 19606; experiment: Growth inhibition around wells on LB agar plates; type: cell-based; conditions: A. baumannii ATCC 19606
Procedure: as §1
(§2) Direct antibacterial activity of sixteen NAB compounds against Acinetobacter baumannii ATCC 19606 and Pseudomonas aeruginosa ATCC 27853 was tested by using the susceptibility determination method described in Example 2. Five compounds (NAB7062, NAB734, NAB737, NAB739, and NAB740) had very notable activity against A. baumannii. […] The antibacterial activity of NAB739 and NAB740 were as strong as or even stronger than that of polymyxin B.

[3] = tested on: Pseudomonas aeruginosa ATCC 27853; experiment: Growth inhibition around wells on LB agar plates; type: cell-based; conditions: Ps. aeruginosa ATCC 27853
Procedure: (§3) From an overnight-grown culture of IH3080 on LB agar, a suspension of approx. 10^8 cells/ml was prepared in 0.9% NaCl. Aliquots of this suspension were then pipetted on the agar plates and the plates were gently shaken to spread the suspension evenly on the entire surface of the plate. Thereafter, the unabsorbed part of the suspension was removed by using a Pasteur pipette. After the surface had dried, small wells (diameter, 2 mm) were drilled on the plates (five wells per plate) by using a sterile sharp-edged narrow metal tube, single-use pipette tip, and vacuum suction. An alternative method used a swab to spread the inoculum. Samples (4 μl and 10 μl) of the peptide solution in 0.9% NaCl (at concentrations of 1 μg/ml and 0.1 μg/ml) were then pipetted to the wells and the sample fluids were allowed to absorb. Controls included 0.9% NaCl solution without the compound to be tested. The plates were then incubated for 18 h at 37° C. whereafter the diameters of growth inhibition zones around each well were measured; the diameter of the well itself was not reduced. Finally, the diameters were converted to surface areas of growth inhibition (in square mm).
as §2

E. coli IH3080 [4] = experiment: Sensitization to rifampin: growth inhibition around wells on LB plates containing rifampin; type: cell-based, Escherichia coli
Procedure: as §3

A. baumannii ATCC 19606 = experiment: as above; type: cell-based, Acinetobacter baumannii; conditions: 4 μg
[5] = tested on: Ps. aeruginosa ATCC 27853; experiment: as above; type: cell-based, Pseudomonas aeruginosa; conditions: 4 μg
[6] = 4 μg of compound, rifampin 0 μg/ml
[7] = 4 μg of compound, rifampin 1.0 μg/ml
[8] = 4 μg of compound, rifampin 0.1 μg/ml

| Substance | growth inhibition around a well (E. coli IH3080 [1]; 10 μg of compound per well) [square millimeters] | growth inhibition around a well ([2]; 4 μg) [square millimeters] | growth inhibition around a well ([2]; 10 μg) [square millimeters] | growth inhibition around a well ([3]; 4 μg) [square millimeters] | growth inhibition around a well ([3]; 10 μg) [square millimeters] | growth inhibition around a well in the presence of rifampin (E. coli IH3080 [4]; [6]) [square millimeters] | growth inhibition around a well in the presence of rifampin (E. coli IH3080 [4]; [7]) [square millimeters] | growth inhibition around a well in the presence of rifampin (A. baumannii ATCC 19606; rifampin 0 μg/ml) [square millimeters] | growth inhibition around a well in the presence of rifampin (A. baumannii ATCC 19606; rifampin 0.1 μg/ml) [square millimeters] | growth inhibition around a well in the presence of rifampin (A. baumannii ATCC 19606; rifampin 0.3 μg/ml) [square millimeters] | growth inhibition around a well in the presence of rifampin ([5]; rifampin 0 μg/ml) [square millimeters] | growth inhibition around a well in the presence of rifampin ([5]; rifampin 0.1 μg/ml) [square millimeters] | growth inhibition around a well in the presence of rifampin ([5]; rifampin 0.3 μg/ml) [square millimeters] | growth inhibition around a well (E. coli IH3080 [1]; 4 μg of compound per well) [square millimeters] | growth inhibition around a well in the presence of rifampin (E. coli IH3080 [4]; [8]) [square millimeters] | growth inhibition around a well in the presence of rifampin (E. coli IH3080 [4]; 10 μg of compound, rifampin 1.0 μg/ml) [square millimeters] |
| --- | --- | --- | --- | --- | --- | --- | --- | --- | --- | --- | --- | --- | --- | --- | --- | --- |
| DA-Thr-Abu-cy[Dab-Dab-DPhe-Leu-Dab-Dab-Thr-] [NAB 7062] | 99 | 13 | 38 | 0 | 0 | 50 | 104 | 13 | 50 | 95 | 0 | 0 | 7 |  |  |  |
| DA-cy[Dab-Dab-DPhe-Leu-Dab-Dab-Thr-] [NAB 736] | 0 | 0 | 0 | 38 | 79 | 0 | 133 | 0 | 95 | 154 | 38 | 38 | 38 | 0 | 113 |  |
| Deacylcolistin [reference compound] | 95 |  |  |  |  | 79 | 127 |  |  |  |  |  |  |  | 87 |  |
| Deacylpolymyxin B [reference compound] | 113 |  |  |  |  | 57 | 127 |  |  |  |  |  |  |  | 79 |  |
| MHA-Abu-Thr-Abu-cy[Dab-Dab-DPhe-Leu-Dab-Dab-Thr-] [NAB 707] | 7 |  |  |  |  | 5 | 113 |  |  |  |  |  |  | 5 | 87 |  |
| MHA-Dab-Thr-Dab-cy[Dab-Dab-DPhe-Leu-Abu-Abu-Thr-] [NAB 721] | 0 |  |  |  |  | 0 | 28 |  |  |  |  |  |  | 0 | 13 |  |
| MHA-Thr-Abu-cy[Dab-Dab-DPhe-Leu-Dab-Dab-Thr-] [NAB 706] | 7 |  |  |  |  | 5 | 133 |  |  |  |  |  |  | 5 | 79 |  |
| OA-Abu-cy[Dab-Dab-DPhe-Leu-Dab-Dab-Thr-] [NAB 713] | 0 |  |  |  |  | 0 | 38 |  |  |  |  |  |  | 0 | 20 |  |
| OA-DAla-DAla-cy[Dab-Dab-DPhe-Leu-Dab-Dab-Thr-] [NAB 733] | 0 |  |  |  |  | 0 | 113 |  |  |  |  |  |  | 0 | 95 |  |
| OA-Thr-Abu-cy[Dab-Abu-DPhe-Leu-Dab-Dab-Thr-] [NAB 710] | 7 |  |  |  |  | 0 | 13 |  |  |  |  |  |  | 0 | 7 |  |
| OA-Thr-Abu-cy[Dab-Dab-DPhe-Leu-Dab-Abu-Thr-] [NAB 709] | 0 |  |  |  |  | 0 | 13 |  |  |  |  |  |  | 0 | 0 |  |
| OA-Thr-Abu-cy[Dab-Lys-DPhe-Leu-Dab-Dab-Thr-] [NAB 731] | 0 |  |  |  |  | 0 | 5 |  |  |  |  |  |  | 0 | 0 | 22 |
| OA-Thr-DThr-cy[Dab-Dab-DPhe-Thr-Dab-Dab-Thr-] [NAB 737] |  | 38 | 79 | 0 | 28 | 133 | 201 | 38 | 201 | 283 | 0 |  | 20 |  | 177 |  |
| OA-Thr-Dab-cy[Dab-Abu-DPhe-Leu-Dab-Dab-Thr-] [NAB 715] | 0 |  |  |  |  | 0 | 33 |  |  |  |  |  |  | 0 | 0 |  |
| Polymyxin B heptapeptide [reference compound] | 0 |  |  |  |  | 0 | 38 |  |  |  |  |  |  | 0 | 0 |  |
